Assay results as given in patent publication US20080004253A1, “Thiazolopyrimidine modulators of TRPV1” (priority 2006, published 2008).

Key:
human TRPV1 = molecular target: T1, human TRPV1 (Homo sapiens, UniProt Q8NER1); test: Functional assay: block of capsaicin-induced Ca2+ influx, human assay (hTRPV1/HEK293, FLIPR); assay type: cell-based; settings: hTRPV1/HEK293 cells, 150 nM capsaicin challenge, Fluo-3 fluorescence; mean; > value = solubility limit in assay medium
T1 construct: expressed in transfected cells; host or cells: HEK293 (hTRPV1/HEK293), zeocin selection
Experimental: (§1) Functional assay: block of capsaicin-induced Ca^2+ influx
(§2) HEK293 cells were transfected with human TRPV1 cloned in pcDNA3.1zeo(+) using the Effectene non-liposomal lipid based transfection kit (Qiagen) (hTRPV1/HEK293). hTRPV1/HEK293 cells were routinely grown as monolayers under selection in zeocin (200 μg/mL; Invitrogen) in Dulbecco's Modified Eagle Medium (DMEM, Gibco BRL) supplemented with 10% fetal bovine serum, and penicillin/streptomycin (50 units/mL) in 5% CO2 at 37° C. Cells were passaged frequently, every 3-5 days, to avoid overgrowth, depletion of essential medium components, or acidic medium exposure. Cells were passaged using a brief wash in 0.05% trypsin with 1 mM EDTA, followed by dissociation in divalent-free phosphate-buffered saline (Hyclone #SH30028.02). […] The assay buffer was composed of 130 mM NaCl, 2 mM KCl, 2 mM MgCl2, 10 mM HEPES, 5 mM glucose, and either 2 mM or 20 μM CaCl2. On the day of the experiment, the culture medium was replaced with 2 mM calcium assay buffer using an automated plate washer (ELx405; Biotek, VT). […] After loading the cells, the dye solution was replaced with 50 μL/well of 20 μM calcium assay buffer using the ELx405 plate washer. Test compounds (50 μL/well) were added to the plate and incubated for 30 min. […] The IC50 values were determined. […] The contents of the wells were mixed 3 times (40 μL mix volume) immediately after the additions were made. Concentration-dependence of block was determined by exposing each well of cells in duplicate rows of a 96-well plate to a serial dilution of test compound. The concentration series usually started at 10 μM with a three-fold serial decrement in concentration. The magnitude of the capsaicin response was determined by measuring the change in fluo3 fluorescence before and 100 seconds after the addition of the agonist. Data were analyzed using a non-linear regression program (Origin; OriginLab, MA).
(§3) IC50 values shown are the average (mean) of the results obtained. […] Compounds were tested in either the free base or trifluoroacetic acid salt form.

rat TRPV1 = molecular target: T2, rat TRPV1 (Rattus norvegicus, UniProt O35433); test: Functional assay: block of capsaicin-induced Ca2+ influx, rat assay (rTRPV1/HEK293, FLIPR); assay type: cell-based; settings: rTRPV1/HEK293 cells, capsaicin challenge, Fluo-3 fluorescence; mean; > value = solubility limit in assay medium
T2 construct: expressed in transfected cells; host or cells: HEK293 (rTRPV1/HEK293), geneticin selection
Experimental: as §1, §2
This assay was performed similarly to the human assay described above, but using HEK293 cells transfected with rat TRPV1 (rTRPV1/HEK293).
as §3

T2 sequence (O35433 whole entry): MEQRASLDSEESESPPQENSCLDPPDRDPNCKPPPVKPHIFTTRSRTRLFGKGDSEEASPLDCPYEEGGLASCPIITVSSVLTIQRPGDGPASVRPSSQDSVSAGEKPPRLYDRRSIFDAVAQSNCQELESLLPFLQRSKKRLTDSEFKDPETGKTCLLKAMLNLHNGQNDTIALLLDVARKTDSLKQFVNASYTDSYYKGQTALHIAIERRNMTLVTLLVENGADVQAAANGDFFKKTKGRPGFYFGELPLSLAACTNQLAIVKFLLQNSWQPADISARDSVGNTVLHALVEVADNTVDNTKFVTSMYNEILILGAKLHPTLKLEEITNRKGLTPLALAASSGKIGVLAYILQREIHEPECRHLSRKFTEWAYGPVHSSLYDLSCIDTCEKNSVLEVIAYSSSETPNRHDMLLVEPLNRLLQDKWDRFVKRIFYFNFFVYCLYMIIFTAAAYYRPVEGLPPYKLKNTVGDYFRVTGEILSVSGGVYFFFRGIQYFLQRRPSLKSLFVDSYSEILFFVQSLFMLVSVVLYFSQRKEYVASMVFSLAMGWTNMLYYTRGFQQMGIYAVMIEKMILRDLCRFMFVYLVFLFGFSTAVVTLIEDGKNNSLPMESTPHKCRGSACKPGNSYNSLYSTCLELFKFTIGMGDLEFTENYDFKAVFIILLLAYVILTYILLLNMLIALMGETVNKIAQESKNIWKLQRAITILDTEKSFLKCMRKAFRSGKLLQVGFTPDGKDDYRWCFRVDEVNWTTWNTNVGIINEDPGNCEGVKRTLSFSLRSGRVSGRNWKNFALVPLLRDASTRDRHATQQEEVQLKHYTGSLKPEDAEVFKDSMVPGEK
T1 sequence (Q8NER1 whole entry): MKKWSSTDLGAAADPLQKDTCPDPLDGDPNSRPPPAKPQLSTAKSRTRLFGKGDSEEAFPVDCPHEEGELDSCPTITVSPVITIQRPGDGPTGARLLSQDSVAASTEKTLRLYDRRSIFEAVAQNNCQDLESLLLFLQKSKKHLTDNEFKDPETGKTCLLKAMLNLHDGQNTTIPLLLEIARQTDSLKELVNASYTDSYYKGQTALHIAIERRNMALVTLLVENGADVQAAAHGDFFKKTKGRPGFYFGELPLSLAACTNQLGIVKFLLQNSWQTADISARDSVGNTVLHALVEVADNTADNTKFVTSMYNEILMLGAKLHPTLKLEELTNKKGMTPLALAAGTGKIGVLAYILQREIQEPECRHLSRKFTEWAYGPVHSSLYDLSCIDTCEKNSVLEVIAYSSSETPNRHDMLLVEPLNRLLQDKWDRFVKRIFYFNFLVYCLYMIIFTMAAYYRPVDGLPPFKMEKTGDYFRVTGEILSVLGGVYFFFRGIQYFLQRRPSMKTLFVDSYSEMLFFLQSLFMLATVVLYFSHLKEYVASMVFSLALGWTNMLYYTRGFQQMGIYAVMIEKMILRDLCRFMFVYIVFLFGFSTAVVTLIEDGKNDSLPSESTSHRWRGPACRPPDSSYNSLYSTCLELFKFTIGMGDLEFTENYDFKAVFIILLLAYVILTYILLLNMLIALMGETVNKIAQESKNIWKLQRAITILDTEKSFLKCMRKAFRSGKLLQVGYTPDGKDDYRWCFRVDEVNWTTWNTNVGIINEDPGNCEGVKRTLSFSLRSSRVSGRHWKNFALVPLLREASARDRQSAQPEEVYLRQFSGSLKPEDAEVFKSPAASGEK

| SMILES | IC50 (human TRPV1) | IC50 (rat TRPV1) |
| --- | --- | --- |
| COC(=O)c1ccc(Nc2ncnc3sc(Nc4c(C)cccc4C)nc23)cc1 [Example 37, 4-[2-(2,6-Dimethyl-phenylamino)-thiazolo[5,4-d]pyrimidin-7-ylamino]-benzoic acid methyl ester] | 134 nM | 38 nM |
| COc1cc(CNc2ncnc3sc(Nc4c(C)cccc4C)nc23)ccc1O [Example 38, 4-{[2-(2,6-Dimethyl-phenylamino)-thiazolo[5,4-d]pyrimidin-7-ylamino]-methyl}-2-methoxy-phenol] | > 20000 nM | 7130 nM |
| Cc1cccc(C)c1Nc1nc2c(NCc3ccc(Cl)c(Cl)c3)ncnc2s1 [Example 39, N^7-(3,4-Dichloro-benzyl)-N^2-(2,6-dimethyl-phenyl)-thiazolo[5,4-d]pyrimidine-2,7-diamine] | > 6670 nM | > 6670 nM |
| Cc1cccc(C)c1Nc1nc2c(Nc3ccc(SC(F)(F)F)cc3)ncnc2s1 [Example 40, N^2-(2,6-Dimethyl-phenyl)-N^7-(4-trifluoromethylsulfanyl-phenyl)-thiazolo[5,4-d]pyrimidine-2,7-diamine] | 67 nM | 16 nM |
| Cc1cccc(C)c1Nc1nc2c(NC3Cc4ccccc4C3)ncnc2s1 [Example 41, N^2-(2,6-Dimethyl-phenyl)-N^7-indan-2-yl-thiazolo[5,4-d]pyrimidine-2,7-diamine] | > 6670 nM | 2040 nM |
| Cc1cccc(C)c1Nc1nc2c(Nc3cccc(C(F)(F)F)c3)ncnc2s1 [Example 42, N^2-(2,6-Dimethyl-phenyl)-N^7-(3-trifluoromethyl-phenyl)-thiazolo[5,4-d]pyrimidine-2,7-diamine] | 4980 nM | 236 nM |
| Cc1cccc(C)c1Nc1nc2c(NCc3ccccc3)ncnc2s1 [Example 43, N^7-Benzyl-N^2-(2,6-dimethyl-phenyl)-thiazolo[5,4-d]pyrimidine-2,7-diamine] | > 6670 nM | > 6670 nM |
| Cc1cccc(C)c1Nc1nc2c(Nc3ccc(S(N)(=O)=O)cc3)ncnc2s1 [Example 44, 4-[2-(2,6-Dimethyl-phenylamino)-thiazolo[5,4-d]pyrimidin-7-ylamino]-benzenesulfonamide] | 14700 nM | 3620 nM |
| CCc1ccc(Nc2ncnc3sc(Nc4c(C)cccc4C)nc23)cc1 [Example 45, N^2-(2,6-Dimethyl-phenyl)-N^7-(4-ethyl-phenyl)-thiazolo[5,4-d]pyrimidine-2,7-diamine] | 70 nM | 37 nM |
| Cc1cccc(C)c1Nc1nc2c(Nc3ccc(C(C)C)cc3)ncnc2s1 [Example 46, N^2-(2,6-Dimethyl-phenyl)-N^7-(4-isopropyl-phenyl)-thiazolo[5,4-d]pyrimidine-2,7-diamine] | 8 nM | 5 nM |
| Cc1ccc(CNc2ncnc3sc(Nc4c(C)cccc4C)nc23)o1 [Example 47, N^2-(2,6-Dimethyl-phenyl)-N^7-(5-methyl-furan-2-ylmethyl)-thiazolo[5,4-d]pyrimidine-2,7-diamine] | > 6670 nM | > 6670 nM |
| COC(=O)c1scc(C)c1Nc1nc2c(Nc3ccc(C(F)(F)F)cc3)ncnc2s1 [Example 48, 4-Methyl-3-[7-(4-trifluoromethyl-phenylamino)-thiazolo[5,4-d]pyrimidin-2-ylamino]-thiophene-2-carboxylic acid methyl ester] | 207 nM | 202 nM |
| COC(=O)c1scc(C)c1Nc1nc2c(Nc3ccc(C(F)(F)F)nc3)ncnc2s1 [Example 49, 4-Methyl-3-[7-(6-trifluoromethyl-pyridin-3-ylamino)-thiazolo[5,4-d]pyrimidin-2-ylamino]-thiophene-2-carboxylic acid methyl ester] | 375 nM | 431 nM |
| Cc1noc(C)c1Nc1nc2c(Nc3ccc(C(F)(F)F)c(Cl)c3)ncnc2s1 [Example 50, N^7-(3-Chloro-4-trifluoromethyl-phenyl)-N^2-(3,5-dimethyl-isoxazol-4-yl)thiazolo[5,4d]pyrimidine-2,7-diamine] | > 6670 nM | > 6670 nM |
| Cc1noc(C)c1Nc1nc2c(Nc3ccc(C(C)(C)C)cc3)ncnc2s1 [Example 51, N^7-(4-tert-Butyl-phenyl)-N^2-(3,5-dimethyl-isoxazol-4-yl)-thiazolo[5,4-d]pyrimidine-2,7-diamine] | 223 nM | 34 nM |
| CSc1nc(Nc2ccc(C(F)(F)F)cc2)c2nc(Nc3c(Cl)cccc3Cl)sc2n1 [Example 52, N^2-(2,6-Dichloro-phenyl)-5-methylsulfanyl-N^7-(4-trifluoromethyl-phenyl)-thiazolo[5,4-d]pyrimidine-2,7-diamine] | 226 nM | 154 nM |
| CS(=O)(=O)c1nc(Nc2ccc(C(F)(F)F)cc2)c2nc(Nc3c(Cl)cccc3Cl)sc2n1 [Example 53, N^2-(2,6-Dichloro-phenyl)-5-methanesulfonyl-N^7-(4-trifluoromethyl-phenyl)-thiazolo[5,4-d]pyrimidine-2,7-diamine] | 196 nM | 93 nM |
| FC(F)(F)c1ccc(Nc2nc(N3CCCCC3)nc3sc(Nc4c(Cl)cccc4Cl)nc23)cc1 [Example 54, N^2-(2,6-Dichloro-phenyl)-5-piperidin-1-yl-N^7-(4-trifluoromethyl-phenyl)-thiazolo[5,4-d]pyrimidine-2,7-diamine] | 63 nM | 33 nM |
| COc1nc(Nc2ccc(C(F)(F)F)cc2)c2nc(Nc3c(Cl)cccc3Cl)sc2n1 [Example 55, N^2-(2,6-Dichloro-phenyl)-5-methoxy-N^7-(4-trifluoromethyl-phenyl)-thiazolo[5,4d]pyrimidine-2,7-diamine] | > 20000 nM | > 20000 nM |
| CN(C)c1nc(Nc2ccc(C(F)(F)F)cc2)c2nc(Nc3c(Cl)cccc3Cl)sc2n1 [Example 56, N^2-(2,6-Dichloro-phenyl)-N^5,N^5-dimethyl-N^7-(4-trifluoromethyl-phenyl)-thiazolo[5,4-d]pyrimidine-2,5,7-triamine] | 32 nM | 44 nM |
| FC(F)(F)c1ccc(Nc2nc(N3CCCC3)nc3sc(Nc4c(Cl)cccc4Cl)nc23)cc1 [Example 58, N^2-(2,6-Dichloro-phenyl)-5-pyrrolidin-1-yl-N^7-(4-trifluoromethyl-phenyl)-thiazolo[5,4-d]pyrimidine-2,7-diamine] | 15 nM | 48 nM |
| FC(F)(F)c1ccc(Nc2nc(N3CCC3)nc3sc(Nc4c(Cl)cccc4Cl)nc23)cc1 [Example 59, 5-Azetidin-1-yl-N^2-(2,6-dichloro-phenyl)-N^7-(4-trifluoromethyl-phenyl)-thiazolo[5,4-d]pyrimidine-2,7-diamine] | 63 nM | 22 nM |
| FC(F)(F)c1ccc(Nc2nc(NCC3CC3)nc3sc(Nc4c(Cl)cccc4Cl)nc23)cc1 [Example 62, N^5-Cyclopropylmethyl-N^2-(2,6-dichloro-phenyl)-N^7-(4-trifluoromethyl-phenyl)-thiazolo[5,4-d]pyrimidine-2,5,7-triamine] | 20 nM | 4 nM |
| FC(F)(F)c1ccc(Nc2nc(N3CCOCC3)nc3sc(Nc4c(Cl)cccc4Cl)nc23)cc1 [Example 64, N^2-(2,6-Dichloro-phenyl)-5-morpholin-4-yl-N^7-(4-trifluoromethyl-phenyl)-thiazolo[5,4-d]pyrimidine-2,7-diamine] | 41 nM | 17 nM |
| CC(C)N1CCN(c2nc(Nc3ccc(C(F)(F)F)cc3)c3nc(Nc4c(Cl)cccc4Cl)sc3n2)CC1 [Example 69, N^2-(2,6-Dichloro-phenyl)-5-(4-isopropyl-piperazin-1-yl)-N^7-(4-trifluoromethyl-phenyl)-thiazolo[5,4-d]pyrimidine-2,7-diamine] | 185 nM | 154 nM |
| FC(F)(F)c1ccc(Nc2nc(-c3ccccc3)nc3sc(Nc4c(Cl)cccc4Cl)nc23)cc1 [Example 70, N^2-(2,6-Dichloro-phenyl)-5-phenyl-N^7-(4-trifluoromethyl-phenyl)-thiazolo[5,4-d]pyrimidine-2,7-diamine] | 225 nM | 83 nM |
| FC(F)(F)c1ccc(Nc2ncnc3sc(Nc4c(Cl)cncc4Cl)nc23)cc1 [Example 72, N^2-(3,5-Dichloro-pyridin-4-yl)-N^7-(4-trifluoromethyl-phenyl)-thiazolo[5,4-d]pyrimidine-2,7-diamine] | 740 nM | 627 nM |
